Data set [1] has as its system B16F10 cultured mouse melanoma cells. The experiment in a line: Trypan blue exclusion assay after ICG labeling of melanoma cells. The class given is cell-based. To be noted: staining 30 min at 37° C., 5% CO2; data not shown. From the text:
B16F10 cultured mouse melanoma cells (ATCC, Rockville, Md.) were used in this experiment. The cells were maintained using standard procedures (Ara et al. 1990, Weight et al. 2006, Zharov et al. 2006), including serial passage in phenol-free RPMI 1640 medium (Invitrogen, Carlsbad, Calif.) supplemented with 10% fetal bovine serum (FBS, Invitrogen). For comparison to the detection of unlabelled melanoma cells, the endogenous cell absorption was increased by staining with ICG (Akorn Inc., USA), a strongly absorbent dye in the NIR range, for 30 min at 37° C. and in the presence of 5% CO2.

The nature of data set [2]: In vivo PAFC monitoring of Lymphazurin in blood circulation (ear microvessel) after tail vein injection. The note with it: 200 μl of 1% solution into tail vein; 50-μm ear microvessel; 650 nm. Details: species or system mouse. From the text: In this experiment, a prototype PAFC system was used to detect Lymphazurin circulating in the blood vessels of a mouse ear.
The prototype PAFC system was built on the platform of an Olympus BX51 microscope (Olympus America, Inc.) and a tunable optical parametric oscillator (OPO) pumped by a Nd:YAG laser (Lotis Ltd., Minsk, Belarus). […] Laser energy was directed to the blood vessels using a conventional lens, or an optical fiber. PA waves emitted by the cells were detected by ultrasound transducers (unfocused Panametrics model XMS-310, 10 MHz; focused cylindrical Panametrics model V312-SM, 10 MHz, focused lengths of 6 mm, 12 mm, and 55 mm; and customized resonance transducers), and the ultrasound transducer outputs were conditioned by an amplifier (Panametrics model 5662, bandwidth 50 kHz-5 MHz; Panametrics model 5678, bandwidth 50 kHz-40 MHz; customized amplifiers with adjustable high and low frequency boundaries in the range to 50-200 KHz and 1-20 MHz, respectively; resonance bandwidth of 0.3-1.0 MHz). The amplifier output signals were recorded with a Boxcar data acquisition system (Stanford Research Systems, Inc.) and a Tektronix TDS 3032B oscilloscope, and were analyzed using standard and customized software. […] The signals from the oscilloscope screen were recorded with a digital camera (Sony, Inc.) and video camera (JVC, Inc.). […]

Each structure is given as a SMILES string.

For `CC1(C)C(/C=C/C=C/C=C/C=C2\N(CCCCS(=O)(=O)O)c3ccc4ccccc4c3C2(C)C)=[N+](CCCCS(=O)(=O)[O-])c2ccc3ccccc3c21` [ICG, Indocyanine Green], the toxicity after labeling entry in data set [1] is “No toxicity was observed”. Turning to `CCN(CC)c1ccc(C(=C2C=CC(=[N+](CC)CC)C=C2)c2cc(S(=O)(=O)[O-])ccc2S(=O)(=O)[O-])cc1.[Na+]` [Lymphazurin, Isosulfan Blue], the “clearance of Lymphazurin from the blood” value in data set [2] was found to be 50 min.

The record behind these values is patent US10342430B2, “Device and method for in vivo noninvasive magnetic manipulation of circulating objects in bioflows” (BioVentures, LLC, priority 2007, dated 2019).
